# Source: paper PMC11808397, “Development of selective nanomolar cyclic peptide ligands as GBA1 enzyme stabilisers” (RSC Chemical Biology, 2025)
# Positions of bridges follow the written chain, without caps; N, C: chain ends. Non-standard residues stand in square brackets, D forms with d. Residues, ends and D or L forms follow the SMILES beside them.
# How the values were obtained:
# GBA3 = biological target: T1, GBA3 (Homo sapiens, UniProt Q9H227); experiment: GBA3 inhibition in overexpressing HEK293T lysates; format: biochemical; conditions: 100 mM HEPES, 4-MU substrate
# T1 construct: expressed in transfected cells
# T1 sequence (Q9H227 1-469): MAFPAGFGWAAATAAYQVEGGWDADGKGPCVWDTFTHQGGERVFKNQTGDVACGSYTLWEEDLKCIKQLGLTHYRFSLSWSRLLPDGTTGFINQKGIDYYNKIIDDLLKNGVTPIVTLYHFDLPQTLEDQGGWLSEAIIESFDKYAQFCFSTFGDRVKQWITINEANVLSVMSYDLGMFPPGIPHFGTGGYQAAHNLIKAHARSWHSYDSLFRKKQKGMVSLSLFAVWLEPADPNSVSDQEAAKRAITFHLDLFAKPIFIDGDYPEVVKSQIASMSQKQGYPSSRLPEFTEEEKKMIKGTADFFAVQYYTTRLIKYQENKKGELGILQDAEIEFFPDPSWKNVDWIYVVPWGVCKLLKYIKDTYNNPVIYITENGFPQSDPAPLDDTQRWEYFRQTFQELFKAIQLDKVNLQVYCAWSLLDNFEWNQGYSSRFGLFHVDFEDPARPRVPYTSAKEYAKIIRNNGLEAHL
# Experimental: (§1) Based on the pull-down validation, a set of eight cyclic peptides (L1, L2, L4, L6, D1, D8, D12 and D13) were identified, synthesized, and evaluated for their inhibitory potency against recombinant human GBA1 (rhGBA1, Cerezyme®) and their selectivity over human β-glucosidases GBA2 and GBA3. Half-maximum inhibitory concentration (IC50) values for β-glucosidases were determined in vitro by measuring hydrolysis of 4-methylumbelliferyl-β-D-glucopyranoside (4-MU-β-D-Glu) fluorogenic substrate. […]
# Pure product fractions were pooled, lyophilized, and dissolved again in DMSO before concentration was determined by A280 using a sample diluted in phosphate buffer at pH 7.4 and extinction coefficients determined from the sequence using the Expasy ProtParam online tool (https://web.expasy.org/protparam/). […]
# (§2) 2.5. In vitro IC50 and Ki measurements […]
# (§3) nM) at 37 °C for 30 min. Following this, 100 µL of 4MU substrate was added and the samples were again incubated at 37 °C for 30 min. The reaction was quenched using excess 1 M NaOH-glycine (200 µL, pH 10.3) and 4MU fluorescence was measured using a LS55 fluorimeter (λEx 366 nm and λEm 445 […]
# (§4) GBA2 and GBA3 IC50 values were determined following a similar protocol,5 using stable GBA2 or GBA3 HEK293T over-expression cell lysates and McIlvaine buffer pH 5.8 with 0.1 % BSA (w/v) and 100 mM HEPES with 0.1 % BSA, respectively. Covalent inhibitor of endogenous GBA1 (1 µM Bodipy green-cyclophellitol β-epoxide activity based probe) was added for both GBA2 and GBA3 assays, and GBA2 inhibitor N-(5-adamantane-1-yl-methoxy-pentyl)-deoxynojirimycin, AMP-DNM at 1 nM) was added for GBA3 assay. Cell lysates were pre-incubated with the aforementioned GBA1/GBA2 inhibitors for 30 min at 37 °C (12.5 µL) and subsequently incubated with the tested ligands at a range of concentrations for 30 min at 37 °C (12.5 µL), after which 100 µL 4MU-β-D-glucopyranoside was added for a final incubation of 30 min at 37 °C, quenched with 200 µL 1 M NaOH-glycine (pH 10.3) and fluorescence was measured. IC50 values were calculated using GraphPad Prism version 8.
# GBA2 = biological target: T2, GBA2 (Homo sapiens, UniProt Q9HCG7); experiment: GBA2 inhibition in overexpressing HEK293T lysates; format: biochemical; conditions: McIlvaine pH 5.8, 4-MU substrate
# T2 construct: expressed in transfected cells
# T2 sequence (Q9HCG7 1-927): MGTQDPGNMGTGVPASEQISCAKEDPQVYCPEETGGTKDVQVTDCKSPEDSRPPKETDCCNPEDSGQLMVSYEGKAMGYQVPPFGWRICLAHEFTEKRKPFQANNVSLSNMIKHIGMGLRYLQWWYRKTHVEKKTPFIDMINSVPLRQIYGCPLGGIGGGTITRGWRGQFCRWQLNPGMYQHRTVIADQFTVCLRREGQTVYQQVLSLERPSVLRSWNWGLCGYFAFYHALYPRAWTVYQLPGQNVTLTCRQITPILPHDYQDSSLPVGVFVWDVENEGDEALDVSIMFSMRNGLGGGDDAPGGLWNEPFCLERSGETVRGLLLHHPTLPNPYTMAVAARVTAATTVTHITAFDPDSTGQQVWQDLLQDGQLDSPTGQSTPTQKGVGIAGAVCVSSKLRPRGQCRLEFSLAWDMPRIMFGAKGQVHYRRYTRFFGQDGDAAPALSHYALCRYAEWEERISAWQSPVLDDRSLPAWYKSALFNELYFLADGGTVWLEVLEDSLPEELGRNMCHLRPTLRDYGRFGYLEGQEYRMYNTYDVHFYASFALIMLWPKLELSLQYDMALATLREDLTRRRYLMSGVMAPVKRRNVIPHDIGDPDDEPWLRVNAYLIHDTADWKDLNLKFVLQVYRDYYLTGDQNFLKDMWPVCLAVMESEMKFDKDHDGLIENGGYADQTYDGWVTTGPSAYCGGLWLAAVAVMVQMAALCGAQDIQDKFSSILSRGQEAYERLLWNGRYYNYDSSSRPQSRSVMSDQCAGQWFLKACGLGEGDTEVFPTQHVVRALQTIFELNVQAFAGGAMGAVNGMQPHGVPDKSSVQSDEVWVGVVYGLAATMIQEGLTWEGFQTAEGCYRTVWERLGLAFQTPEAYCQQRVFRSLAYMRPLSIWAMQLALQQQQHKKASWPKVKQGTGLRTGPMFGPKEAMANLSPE
# Experimental: as §1, §2, §3, §4
Structure (SMILES),IC50 (GBA3),IC50 (GBA2)
CC[C@H](C)[C@H](NC(=O)[C@H](CC(C)C)NC(=O)[C@H](Cc1ccc(O)cc1)NC(=O)[C@H](Cc1ccc(O)cc1)NC(=O)[C@@H]1CSCC(=O)N[C@H](Cc2ccc(O)cc2)C(=O)N[C@@H](CCCNC(=N)N)C(=O)N[C@@H](C(C)C)C(=O)N1)C(=O)N[C@H](C(=O)N[C@H](C(=O)N[C@@H](CC(C)C)C(=O)N[C@@H](CC(=O)O)C(=O)N[C@@H](CS)C(N)=O)C(C)C)[C@@H](C)O [D1] ({CH2CO}-[dY]RVCYYLITVLDC-NH2; thioether N-4),> 100 µM,> 100 µM
CC(C)C[C@H](NC(=O)[C@@H](NC(=O)[C@H](CCCNC(=N)N)NC(=O)[C@@H]1CSCC(=O)N[C@H](Cc2ccc(O)cc2)C(=O)N[C@@H]([C@@H](C)O)C(=O)N2CCC[C@H]2C(=O)NCC(=O)N[C@@H](Cc2ccc(O)cc2)C(=O)N[C@@H](C(C)C)C(=O)N[C@@H](Cc2ccc(O)cc2)C(=O)N1)C(C)C)C(=O)N[C@@H](CCCCN)C(=O)N[C@@H](Cc1ccc(O)cc1)C(=O)N[C@@H](CS)C(N)=O [D8] ({CH2CO}-[dY]TPGYVYCRVLKYC-NH2; thioether N-8),> 100 µM,> 100 µM
CC(C)C[C@@H]1NC(=O)CNC(=O)[C@H](CC(C)C)NC(=O)[C@@H](Cc2ccc(O)cc2)NC(=O)CSC[C@@H](C(N)=O)NC(=O)[C@H](CO)NC(=O)[C@H](CCCCN)NC(=O)[C@H](CC(C)C)NC(=O)[C@H](Cc2ccccc2)NC(=O)[C@H](CCCNC(=N)N)NC(=O)[C@H](Cc2ccc(O)cc2)NC(=O)[C@H](Cc2c[nH]c3ccccc23)NC1=O [D12] ({CH2CO}-[dY]LGLWYRFLKSC-NH2; thioether N-12),~85 µM,> 100 µM

# Further lines, results first:
IC50 (GBA3),IC50 (GBA2),Structure (SMILES)
> 100 µM,> 100 µM,CC[C@H](C)[C@@H]1NC(=O)[C@H](CO)NC(=O)[C@H](CS)NC(=O)CNC(=O)CNC(=O)[C@H](CC(C)C)NC(=O)[C@H](Cc2ccc(O)cc2)NC(=O)[C@H](C(C)C)NC(=O)[C@H](CC(C)C)NC(=O)[C@H](CCCNC(=N)N)NC(=O)[C@@H]2CCCN2C(=O)[C@H](Cc2ccc(O)cc2)NC(=O)CSC[C@@H](C(N)=O)NC(=O)[C@H](CCC(=O)O)NC(=O)[C@H](CC(C)C)NC(=O)[C@H](CC(C)C)NC1=O [L1] ({CH2CO}-YPRLVYLGGCSILLEC-NH2; thioether N-16)
> 100 µM,> 100 µM,CC[C@H](C)[C@H](NC(=O)[C@H](CCCNC(=N)N)NC(=O)[C@@H]1CSCC(=O)N[C@@H](Cc2ccc(O)cc2)C(=O)N[C@@H](C)C(=O)N[C@@H](Cc2ccc(O)cc2)C(=O)N[C@@H](Cc2c[nH]c3ccccc23)C(=O)N[C@@H](Cc2c[nH]c3ccccc23)C(=O)N[C@@H](CC(C)C)C(=O)N1)C(=O)N1CCC[C@H]1C(=O)N[C@@H](Cc1c[nH]c2ccccc12)C(=O)N[C@@H](CC(C)C)C(=O)N[C@@H](CO)C(=O)N[C@H](C(N)=O)C(C)C [L2] ({CH2CO}-YAYWWLCRIPWLSV-NH2; thioether N-7)
> 100 µM,> 100 µM,CC(C)C[C@@H]1NC(=O)CNC(=O)[C@H](Cc2ccccc2)NC(=O)[C@H](CC(C)C)NC(=O)[C@@H]2CCCN2C(=O)[C@H](Cc2ccc(O)cc2)NC(=O)CSC[C@@H](C(=O)N2CCC[C@H]2C(=O)N[C@@H](CC(N)=O)C(=O)N[C@@H](Cc2c[nH]c3ccccc23)C(=O)N[C@@H](Cc2ccccc2)C(=O)N2CCC[C@H]2C(=O)N[C@@H](Cc2ccc(O)cc2)C(=O)N[C@@H](CCC(N)=O)C(=O)N[C@@H](CS)C(N)=O)NC(=O)[C@H](CO)NC(=O)[C@H](Cc2ccccc2)NC1=O [L4] ({CH2CO}-YPLFGLFSCPNWFPYQC-NH2; thioether N-9)
> 100 µM,> 100 µM,CC[C@H](C)[C@@H]1NC(=O)[C@H](Cc2ccc(O)cc2)NC(=O)CSC[C@@H](C(N)=O)NC(=O)[C@H](Cc2c[nH]c3ccccc23)NC(=O)[C@H](CCC(N)=O)NC(=O)[C@H]([C@@H](C)CC)NC(=O)[C@H]([C@@H](C)CC)NC(=O)[C@@H]2CCCN2C(=O)[C@H](C(C)C)NC(=O)[C@H](Cc2ccc(O)cc2)NC(=O)[C@H](Cc2c[nH]c3ccccc23)NC(=O)[C@H](CO)NC1=O [L6] ({CH2CO}-YISWYVPIIQWC-NH2; thioether N-12)
